According to patent US20230050846A1, “TREATMENT OF HEPATIC AND CARDIOVASCULAR DISORDERS” (LIFESEARCH, priority 2019, published 2023):

What was measured:
C57B/L6J mice fed CDAHFD = assay: CDAHFD diet-induced NASH associated hepatic fibrosis mouse model; format: in vivo; details: sc infusion two weeks, 5 mg/kg BW/day
Protocol: Wild-type C57B/L6J male mice were purchased from Janvier Labs (Le Genest Saint Isle, France). Mice were caged in animal rooms under specific pathogen free conditions at the animal facility of Rangueil (Anexplo platform, US006, Toulouse, France) with a light/dark schedule of 12 h/12 h. At the initiation of the dietary intervention, all animals were 8 weeks old and were fed ad libitum with a normal chow diet (#V1535 R/M-H, Ssniff, Germany). All animal experimental procedures were conducted in accordance with institutional guidelines on animal experimentation approved by the local ethical committee of animal care and are conformed to the guidelines from Directive 2010/63/EU of the European Parliament on the protection of animals used for scientific purposes or the NIH guideline.
8 weeks old mice were fed for 6 week a choline-deficient, L-amino acid-defined, high-fat diet (CDAHFD #A06071302, Research Diet, USA) consisting of 60 kcal % fat and 0.1% methionine by weight. For the 2 last weeks of the 6-week period, a group of mice were implanted with an osmotic pump containing the peptide of formula (I). Briefly, 200 μL osmotic pump were filled with 10 mg/mL of the peptide of formula (I) in PBS and were implanted subcutaneously into the mice according to the manufacturer's instructions (Alzet®, model pump #2002), to insure the peptide of formula (I) release at an estimated rate of 0.5 μL/h, which corresponds to an estimated amount of delivery of 5 mg of the peptide of formula (I) per kilogram of body weight per day (5 mg/kg BW/day). The control group was composed of mice that underwent the same chirurgical procedure used for osmotic pump implantation (sham-operated mice).
Liver histology. […] Fibrosis was assessed by Sirius Red staining. […]
Hepatic hydroxyproline was determined by hydrolizing 80-140 mg liver in a 6N HCl solution, overnight, at 110 degrees Celsius. […] Absorbance was measured at 550 nm and the results are expressed as micrograms of hepatic hydroxyproline per mg tissue.

wild-type C57B/L6J mice = assay: Femoral artery blood flow in conscious mice; format: in vivo, mouse; details: data not shown
Description: According to the protocol disclosed in [5], the peptide of formula (I) increased femoral artery blood flow in conscious wild-type C57B/L6J mice in a process that strictly depend on endothelial NO production (data not shown).

Ac-RGAGSIREAGGAFGKREQAEEERYFRAQSRE-NH2 [peptide of formula (I), CH3CO-[SEQ ID NO: 1]-NH2]
collagen deposition (Sirius Red staining) (C57B/L6J mice fed CDAHFD; p<0.01 vs sham-operated mice): less collagen deposition | decrease in the concentration of hydroxyproline content per milligram of liver (C57B/L6J mice fed CDAHFD; p<0.05 vs sham-operated mice): more than 35% | CDAHFD diet-induced increase of hepatic fibrosis (C57B/L6J mice fed CDAHFD; vs sham-operated mice): significantly attenuated | femoral artery blood flow (wild-type C57B/L6J mice): increased
